According to US20250188113A1, “HIGH PURITY NON-ANIMAL DERIVED TUDCA” (SANDHILL ONE, LLC, priority 2021, published 2025):

Key:
[1] = Crystallinity of Pattern L upon drying (XRPD); format: physicochemical; settings: dried in a 50° C. oven under −29.5 in Hg for 3 h
Experimental: Pattern L was prepared by the slurry method. In this experiment, 205.4 mg of solid commercial-grade plant derived TUDCA was mixed with 2.2 mL of IPAc:MeOH (7.3:2.9 vol.) in a 4 mL vial at 50° C. The mixture was sonicated for 1 h and stirred for 15 min at 400 rpm, after which it was filtered and analyzed by XRPD. […] As this pattern was a possible hydrate, it was placed in a humidity chamber at 55% RH to see if the crystallinity would increase. The yield was 114.6 mg […].

[2] = DVS mass change (moisture sorption); format: physicochemical

Compound | DVS mass change 5-95% RH (wt. %) [2] | other results
C[C@H](CCC(=O)NCCS(=O)(=O)O)[C@H]1CC[C@H]2[C@@H]3[C@@H](O)C[C@@H]4C[C@H](O)CC[C@]4(C)[C@H]3CC[C@]12C [Pattern L, Tauroursodeoxycholic acid] |  | Crystallinity upon drying [1]: decrease
CC(CCC(=O)NCCS(=O)(=O)O)C1CCC2C3C(O)CC4CC(O)CCC4(C)C3CCC12C.N=C(N)NCCCC(N)C(=O)O [Pattern 1-A (L-arginine), L-arginine TUDCA] |  | DVS mass change 2-80% RH (wt. %) ([2]; 2-80% RH): 2.91 wt. %
CC(C)NC(C)C.C[C@H](CCC(=O)O)[C@H]1CC[C@H]2[C@@H]3C(=O)C[C@@H]4CC(=O)CC[C@]4(C)[C@H]3CC[C@]12C [Diisopropylamine salt, diisopropylamine salt of 3,7-DKCA] | 2.53 wt. % | 
C[C@H](CCC(=O)O)[C@H]1CC[C@H]2[C@@H]3C(=O)C[C@@H]4CC(=O)CC[C@]4(C)[C@H]3CC[C@]12C.NCCN [Ethylenediamine salt, ethylenediamine salt of 3,7-DKCA] | 19.60 wt. % | 
CC(C)(C)N.C[C@H](CCC(=O)O)[C@H]1CC[C@H]2[C@@H]3C(=O)C[C@@H]4CC(=O)CC[C@]4(C)[C@H]3CC[C@]12C [tert-Butylamine salt, tert-butylamine salt of 3,7-DKCA] | 10.89 wt. % | 
C[C@H](CCC(=O)NCCS(=O)(=O)O)[C@H]1CC[C@H]2[C@@H]3[C@@H](O)C[C@@H]4C[C@H](O)CC[C@]4(C)[C@H]3CC[C@]12C [Pattern A, Tauroursodeoxycholic acid] |  | DVS mass change 2-95% RH (wt. %) ([2]; 2-95% RH): 0.96 wt. %
